# Measurements published in patent US11932654B2, “Nimbolide analogs as anti-cancer agents and preparation thereof” (priority 2018, dated 2024).
# pIC50: −log10 of the molar value.
# Key:
# p21 = test: Western blotting analysis on Panc-1 cell line, p21; assay type: cell-based; details: panc-1 cells, various concentrations, 24 h, Western blot
# Experimental: (§1) Western blotting analysis of IM-1372-Kn-13 on Panc-1 cell line: The cells were lysed in RIPA buffer (50 mM-tris (PH-7.4), 150 Min-Nacl, 1%-NP-40, 0.1%-SDS, 0.5%-Sodium-deoxycholate, 1 mM EDTA, 5 mM NaF, 5 mM Na—O-vandate, 1 mM PMSF, Protease inhibitor cocktail. The lysates were cleared by centrifugation at […] and concentration of protein was estimated by bradford assay. For Western blot analysis, equivalent amount of protein was resolved in SDS-PAGE and then transferred to polyvinylidene difluoride ([…]) membrane. Ti avoid non specific binding of antibodies, the membranes were blocked using 3% BSA in TBS with 0.5% Tween (TBST) for 1 h at room temperature. The membranes were then incubated in primary antibody overnight at 4° C. After removing excess primary antibody bound to membranes, blots were incubated with secondary anti body. Then the signal emitted was captured using chemiluminescence substrate.
# caspase-9 = test: Caspase assay activity, caspase-9, Panc-1 cells; assay type: cell-based; details: fluorimetric assay, increasing concentrations
# Experimental: (§2) Caspase assay activity: Caspase-3, caspase-8 and caspase-9 protease activities were determined using a commercial fluorescence assay kit according to the manufacturer's instructions, Briefly, pancreatic cancer cells were treated with different concentrations of IM-1372-Kn-13 for 24 h were re-suspended in 50 μL of chilled cell lysis buffer; cells were then incubated on ice for 10 min and centrifuged for 1 min in a micro-centrifuge (10,000 g). Then supernatants were transferred (cytosolic extract) to a fresh tube and protein concentration was assayed. Next, diluted 100 μg protein was added to 50 μL cell lysis buffer for each assay. Subsequently, 50 μL of 2× reaction buffer and 5 μL of the 4 mM Ac-DEVD AMC (caspase-3)/Ac-VETD-AMC (caspase-8)/[…] were added and incubated at 37° C. for 2 h (samples read at […] in a microtiter plate reader).
# [1] = tested on: Panc-1 pancreatic cancer cell line; test: In vitro anticancer activity, SRB assay, Panc-1; assay type: cell-based; details: Homo sapiens, 48 h, NA = Not Active
# Experimental: (§3) Cell culture: Human lung adenocarcinoma cell line (A549 cell line), pancreatic cancer cell line (Panc-1, Pan-02), prostate cancer cell line (DU145, PC3), Brest cancer cell line (MCF-7) was grown in DIEM (Dulbecco's modifications of eagle's medium with L-glutamine & 4.5 g/L glucose) supplemented with fetal bovine serum in a humidified atmosphere of a 5% CO2 at 37° C.
# (§4) In vitro anticancer activity: Cells were harvested from exponential phase cultures by trypsinization, counted and plated in 96-well plate. Optimal seeding densities for different cell lines in each plate were 5000 cells per well. After 24 h cells were treated with \ the newly synthesized compound at a dose range of 0.1-100 μm final concentration. Thereafter, cells were allowed to grow for 48 h before determination of cell survival by the SRB assay. Then the cells were fixed with 10% cold trichloroacetic acid for 1 h at 4° C. After two washes with deionized water, fixed cells were stained with 50 μL of SRB solution (1% in acetic acid) for 30 min and subsequently washed twice with 1% acetic acid to remove unbound stain. The plates were left to dry at room temperature and bound stain was solubilized with 100 μL of 10 mM buffered Tris base for reading the […] at 540 nm.
# [2] = Biochemical analysis in acute toxicity studies; assay type: in vivo, mice
# Experimental: Biochemical analysis: In acute toxicity experiment, blood samples were collected from all the animals 1 week after the last dose and mice were sacrificed by cervical decapitation. The obtained serum was analyzed in clinical chemistry for the assessment of liver function tests (LFT), activity of serum alkaline phosphatase (ALP), alanine aminotransferase (ALT), aspartate aminotransferase (AST), kidney function tests (RFT) (serum urea and creatinine). The same tests were performed for serum samples collected from three groups of tumor xenograft mice used for determining in vivo activity of test compound against pancreatic cancer. The measurement of these biochemical parameters was done in Clinical Biochemical analyzer (Tulip coralab 3000™).
# p27 = test: Western blotting analysis on Panc-1 cell line, p27; assay type: cell-based; details: panc-1 cells, various concentrations, 24 h, Western blot
# Experimental: as §1
# [3] = Acute toxicity test with histopathology
# Experimental: Acute toxicity test: Safety tests begin with acute toxicity testing, where the animals are given a single dose of the test compound. The aim of the tests is to determine the range between the dose that causes no adverse effect and the dose that is life-threatening. […] Different doses (50, 25, 10, and 5 mg/kg body weight) of the test compound are given to the animals separately through IP injection. Post injection, the animals were monitored for the first 4 h and observed at every hourly interval for next 24 h. Further, animals were observed everyday for 14 days for any signs of toxic effects and behavior of animals. On day 14 all the surviving animals are sacrificed by a humane method and dissected to investigate signs of toxicity internally. […] If the drug is intended for the treatment of life-threatening diseases, toxicity is less of a concern than in a drug intended for use in healthy individuals.
# Histopathological examination: For pathological studies, 5 μm sections of formalin-fixed, paraffin-embedded tissue were prepared and stained with haematoxylin and eosin. After haematoxylin-eosin (HE) staining, the slides were observed and the images were taken using optical microscope (Axioplan-II imaging). All slides were reviewed in a blinded fashion by a single pathologist and assessed for the presence of necrotic lesions (nodules) in the tumors and organs of different groups of mice.
# NIH3T3 cells = test: In vitro anticancer activity, SRB assay, NIH3T3; assay type: cell-based
# Experimental: as §4
# caspase-8 = test: Caspase assay activity, caspase-8, Panc-1 cells; assay type: cell-based; details: fluorimetric assay, increasing concentrations
# Experimental: as §2
# p53 = test: Western blotting analysis on Panc-1 cell line, p53; assay type: cell-based; details: panc-1 cells, various concentrations, 24 h, Western blot
# Experimental: as §1
# [4] = tested on: PC3 prostate cancer cell line; test: In vitro anticancer activity, SRB assay, PC3; assay type: cell-based; details: 48 h, NA = Not Active
# Experimental: as §3, §4
# [5] = single IP dose 5 mg/kg body weight
# [6] = single IP dose 10 mg/kg body weight
# [7] = single IP dose 25 mg/kg body weight
# [8] = single IP dose 50 mg/kg body weight
smiles,measurement,setting,value
COC(=O)C[C@H]1[C@]2(C)C3=C(C)[C@H](C4=CC5OC4C(C(=O)OC)=C5C(=O)OC)C[C@@H]3O[C@@H]2[C@@H]2OC(=O)[C@]3(C)C=CC(=O)[C@@]1(C)C23 (stereo partly drawn) [A4],expression of p21 protein,p21,reduced
same,activity of caspase-9,caspase-9,increased significantly in a dose-dependent manner
same,pIC50,[1],5.04
same,ALT,[2]; [5],48 U/L
same,AST,[2]; [5],63 U/L
same,BUN,[2]; [5],18 mg/dL
same,Cholesterol,[2]; [5],175 mg/dL
same,Creatinine,[2]; [5],0.4 mg/dL
same,Glucose,[2]; [5],101 mg/dL
same,ALT,[2]; [6],66 U/L
same,AST,[2]; [6],66 U/L
same,BUN,[2]; [6],21 mg/dL
same,Cholesterol,[2]; [6],175 mg/dL
same,Creatinine,[2]; [6],0.4 mg/dL
same,Glucose,[2]; [6],100 mg/dL
same,ALT,[2]; [7],67 U/L
same,AST,[2]; [7],74.5 U/L
same,BUN,[2]; [7],24.5 mg/dL
same,Cholesterol,[2]; [7],163.5 mg/dL
same,Creatinine,[2]; [7],0.35 mg/dL
same,Glucose,[2]; [7],96 mg/dL
same,ALT,[2]; [8],95 U/L
same,AST,[2]; [8],128 U/L
same,BUN,[2]; [8],29 mg/dL
same,Cholesterol,[2]; [8],178 mg/dL
same,Creatinine,[2]; [8],0.9 mg/dL
same,Glucose,[2]; [8],102 mg/dL
same,expression of p27 protein,p27,reduced
same,organ histopathology,[3]; 25 mg/kg body weight,"all organs including liver, kidney and spleen appeared normal"
same,survival,"[3]; 25 mg/kg, 10 mg/kg and 5 mg/kg",survived beyond the 24 h of observation
same,kidney histopathology,[3]; 50 mg/kg body weight,moderate capsular thickening and fibrosis in the renal capsules
same,liver histopathology,[3]; 50 mg/kg body weight,minor inflammation in the liver
same,adverse gastrointestinal effects,[3]; all the mice used in the experiment,no adverse gastrointestinal effects were observed
same,mortality,[3]; one mouse that received 50 mg/kg,died within 24 h
same,toxic effects in acute toxicity studies,[3]; up to 50 mg/kg,failed to show any toxic effects
same,cytotoxic activity,NIH3T3 cells,no activity was observed
same,activity of caspase-8,caspase-8,increased significantly in a dose-dependent manner
same,expression of p53 protein,p53,reduced
same,pIC50,[4],5.85
